According to patent US11472771B2, “Process for making amino diaryl ethers and amino diaryl ethers hydrochloride salts” (CELLESTIA BIOTECH AG, priority 2018, dated 2022):

Key:
Format in all cases: physicochemical
[1] = Stability study, storage 5° C.
Procedure: For 6-(4-(tert-butyl)phenoxy)pyridin-3-amine monohydrochloride two different types of stability studies were performed including short-term and long-term stability studies, respectively, […] In terms of analytical determinations six tests were involved including appearance, assay free base mean and purity mean, water, IR and XRPD. Appearance was determined by visual inspection. The product should be a white or off-white powder. Water content was determined according to USP <921> coulometric method. Identification of 6-(4-(tert-butyl)phenoxy)pyridin-3-amine monohydrochloride by IR spectroscopy was done according to USP <197>, comparing the spectrum obtained to that of the reference standard. X-Ray powder diffraction (XRPD) was performed according to USP <941> against the reference XRPD spectrum. Purity and assay of free base was done by HPLC-UV. Two methods were used. Mobile phases in the first method were water and acetonitrile. Mobile phases in the second method were water (0.5 mL of trifluoroacetic acid was added to 1000 mL of water) and acetonitrile (0.4 mL of trifluoroacetic acid was added to 1000 mL of acetonitrile). Equipment and chromatographic conditions for identification and determination of purity and assay of the 6-(4-(tert-butyl)phenoxy)pyridin-3-amine monohydrochloride by HPLC-UV according to the first method and the second method, respectively, are shown in Tables 5 and 6. [table] [table]

[2] = Forced degradation: solid state with thermal stress
Procedure: (§1) Instrumentation: • Light stability chamber: Solarbox 1500e • Oven: Salvis Vacuum drying oven VC-20 • Heating unit: Ikamag RET-GS with IKA ETS SD and stainless steel heating block • Vials: Supelco V-Vials and screw caps with PTFE septa • Gas tight vials: Agilent 10 mL HS-GC clear glass vials and crimp caps with Not applicable PTFE septa • Quartz glass cuvette: Hellma precision cuvette Suprasil, Type 117.100-QS, 10 mm path length, screw capped with silicone septa • HPLC: As described above
(§2) The HPLC test method described above was used to determine the assay and purity of 6-(4-(tert-butyl)phenoxy)pyridin-3-amine monohydrochloride before the forced degradation experiments and the area % content of individual impurities and degradation products in the 6-(4-(tert-butyl)phenoxy)pyridin-3-amine monohydrochloride samples obtained from the degradation experiments.
(§3) The assay and the purity of 6-(4-(tert-butyl)phenoxy)pyridin-3-amine monohydrochloride were determined using HPLC with UV detection at 220 nm utilizing the area normalization methodology for purity determination and external standard calibration for assay determination. During all experiments the UV spectra from 200 nm to 950 nm have been recorded and also the peak purity of 6-(4-(tert-butyl)phenoxy)pyridin-3-amine monohydrochloride was assessed.
Approximately 20.4 mg and 50.1 mg of 6-(4-(tert-butyl)phenoxy)pyridin-3-amine monohydrochloride were weighed into a Supelco V-Vial. The vial was closed with the screw cap and stored in the heating block of the heating unit operated at 100° C.±5° C. for 20 h (20 mg sample) and 68 h (50 mg sample), respectively.
After storage at 100° C. for the intended time each sample was cooled down to room temperature and the content of the vial was dissolved in about 4 mL of the sample solvent (acetonitrile/water 3:1 v/v). The obtained solution was quantitatively transferred into a 25 mL volumetric flask (20 mg sample), or to a 50 mL volumetric flask (50 mg sample), respectively. […]

[3] = Forced degradation: solid state stressed by UV/VIS radiation
Procedure: as §1, §2, §3
Two samples of 20.23 mg and 20.17 mg of 6-(4-(tert-butyl)phenoxy)pyridin-3-amine monohydrochloride were weighed each into a quartz glass cuvette. Both cuvettes were closed with the screw cap. One of the cuvettes was protected by wrapping it in aluminium foil. This sample served as dark control. Both cuvettes were placed alongside each other in the light stability chamber and were then exposed in accordance to guideline to UV/VIS radiation applying energy of 500 W/m^2 until a total illumination of 1200 kLux·h was reached. After exposure to the UV/VIS radiation for an illumination of 1200 kLux·h the sample was brought to room temperature and the content of the cuvette was dissolved in about 2 mL of the sample solvent (acetonitrile/water 3:1 v/v). The obtained solution was quantitatively transferred into a 25 mL volumetric flask. Then the cuvette was rinsed five times with about 2 mL sample solvent, whereupon each time the content of the cuvette was also transferred into the 25 mL volumetric flask. After the flask was filled up to volume with the sample solvent and was shaken well, an aliquot of this solution was transferred into a HPLC vial for analysis. Result: In solid state 6-(4-(tert-butyl)phenoxy)pyridin-3-amine monohydrochloride is stable against UV/VIS radiation. After an illumination of 1200 kLux·h, applying an energy of 500 W/m^2, the purity decreased by 0.6 area % which was mainly related to the occurrence of two unknown impurities.

[4] = 6 months stability studies, 55° C., 3 mths
[5] = 6 months stability studies, 55° C., 6 mths
[6] = 6 months stability studies, 55° C., Release data
[7] = 36 months stability studies, 5° C., 6 mths
[8] = 36 months stability studies, 5° C., 9 mths
[9] = 36 months stability studies, 5° C., 12 mths
[10] = 36 months stability studies, 5° C., 18 mths
[11] = 36 months stability studies, 5° C., 24 mths
[12] = solid state, illumination of 1200 kLux·h, 500 W/m^2

## CC(C)(C)c1ccc(Oc2ccc(N)cn2)cc1.Cl [6-(4-(tert-butyl)phenoxy)pyridin-3-amine monohydrochloride]
[1]; [4]
  Assay free base, mean: 87.2 % m/m
  IR, conforms to reference: complies
  Purity, mean: 99 % area
  Water: 0.02 % m/m
[1]; [5]
  Assay free base, mean: 87.6 % m/m
  IR, conforms to reference: complies
  Purity, mean: 99 % area
  Water: 0.02 % m/m
[1]; [6]
  Assay free base, mean: 89.4 % m/m
  IR, conforms to reference: complies
  Purity, mean: 100.0 % area
  Water: 0.01 % m/m
[1]; 36 months stability studies, 5° C., 3 mths
  Water: 0.02 % m/m
[1]; [7]
  Assay free base, mean: 87.5 % m/m
  Purity, mean: 100.0 % area
  Water: 0.02 % m/m
[1]; [8]
  Assay free base, mean: 89.6 % m/m
  Purity, mean: 100.0 % area
  Water: 0.03 % m/m
[1]; [9]
  Assay free base, mean: 87.3 % m/m
  Purity, mean: 100.0 % area
  Water: 0.02 % m/m
[1]; [10]
  Assay free base, mean: 87.0 % m/m
  Purity, mean: 100.0 % area
  Water: 0.01 % m/m
[1]; [11]
  Assay free base, mean: 88.3 % m/m
  Purity, mean: 100.0 % area
  Water: 0.02 % m/m
[1]; 36 months stability studies, 5° C., Release data
  Water: 0.01 % m/m
[2]; 100° C.
  stability in solid state: stable
[2]; solid state, after 68 h storage at 100° C.
  changes in the purity and the purity profile: No significant changes
[2]; solid state, storage at 100° C., accepted variability of the method ±2%
  decrease in the assay: ≤ 2%
[3]; dark control (cuvette wrapped in aluminium foil) in the light stability chamber
  decrease in the assay: 2.4 % w/w
[3]; solid state
  stability against UV/VIS radiation: stable
[3]; [12]
  decrease in the assay: 2.1 % w/w
  purity decrease: 0.6 area %
